Reference: article PMC11826341 (PNAS Nexus, 2025)
“Also recorded” adds a separate entry of the source.

How the values were obtained:
[1] = tested on: cultured hippocampal neurons
[2] = tested on: cultured hippocampal neurons; details: 48 h
[3] = tested on: sEPSCNMDAR, synaptic NMDARs of cultured hippocampal neurons; type: cell-based, rat

With N[C@H](CCCP(=O)(O)O)C(=O)O [AP5, (2R)-amino-5-phosphonovaleric acid] the “Neuroprotection against STRO” value [1] was “did not exert neuroprotection”.
In the case of CN[C@H](CC(=O)O)C(=O)O [NMDA, N-methyl-D-aspartate], the Neurons killed [2] is reported as ~80%.
In the case of CN[C@@H]1C[C@H]2O[C@@](C)([C@@H]1OC)n1c3ccccc3c3c4c(c5c6ccccc6n2c5c31)C(=O)NC4 [STRO, staurosporine], the Apoptotic neurons [1] is reported as 30.85% and the “Dead (apoptotic) neurons” value [1] is reported as 76.99%.
CC(C(O)c1ccc(O)cc1)N1CCC(Cc2ccccc2)CC1 (centres unmarked) [ifenprodil] was tested, and the “sEPSCNMDAR amplitude” value [3] was “strongly reduced amplitudes; also recorded: significantly less so in mature neurons”.
